{"source": "patent US11083709B2", "about": "“Compounds, compositions, and methods of increasing CFTR activity” (Proteostasis Therapeutics, Inc., priority 2015, dated 2021)", "target": "T1, CFTR in G542X/F508del HBEs (Homo sapiens, UniProt P13569, DEL508-508)", "T1 construct": "endogenous in cells; host or cells: primary lung epithelial cells (hBEs), genotype G542X/F508del", "T1 sequence (P13569 with tags, fused parts or gaps DEL508-508)": "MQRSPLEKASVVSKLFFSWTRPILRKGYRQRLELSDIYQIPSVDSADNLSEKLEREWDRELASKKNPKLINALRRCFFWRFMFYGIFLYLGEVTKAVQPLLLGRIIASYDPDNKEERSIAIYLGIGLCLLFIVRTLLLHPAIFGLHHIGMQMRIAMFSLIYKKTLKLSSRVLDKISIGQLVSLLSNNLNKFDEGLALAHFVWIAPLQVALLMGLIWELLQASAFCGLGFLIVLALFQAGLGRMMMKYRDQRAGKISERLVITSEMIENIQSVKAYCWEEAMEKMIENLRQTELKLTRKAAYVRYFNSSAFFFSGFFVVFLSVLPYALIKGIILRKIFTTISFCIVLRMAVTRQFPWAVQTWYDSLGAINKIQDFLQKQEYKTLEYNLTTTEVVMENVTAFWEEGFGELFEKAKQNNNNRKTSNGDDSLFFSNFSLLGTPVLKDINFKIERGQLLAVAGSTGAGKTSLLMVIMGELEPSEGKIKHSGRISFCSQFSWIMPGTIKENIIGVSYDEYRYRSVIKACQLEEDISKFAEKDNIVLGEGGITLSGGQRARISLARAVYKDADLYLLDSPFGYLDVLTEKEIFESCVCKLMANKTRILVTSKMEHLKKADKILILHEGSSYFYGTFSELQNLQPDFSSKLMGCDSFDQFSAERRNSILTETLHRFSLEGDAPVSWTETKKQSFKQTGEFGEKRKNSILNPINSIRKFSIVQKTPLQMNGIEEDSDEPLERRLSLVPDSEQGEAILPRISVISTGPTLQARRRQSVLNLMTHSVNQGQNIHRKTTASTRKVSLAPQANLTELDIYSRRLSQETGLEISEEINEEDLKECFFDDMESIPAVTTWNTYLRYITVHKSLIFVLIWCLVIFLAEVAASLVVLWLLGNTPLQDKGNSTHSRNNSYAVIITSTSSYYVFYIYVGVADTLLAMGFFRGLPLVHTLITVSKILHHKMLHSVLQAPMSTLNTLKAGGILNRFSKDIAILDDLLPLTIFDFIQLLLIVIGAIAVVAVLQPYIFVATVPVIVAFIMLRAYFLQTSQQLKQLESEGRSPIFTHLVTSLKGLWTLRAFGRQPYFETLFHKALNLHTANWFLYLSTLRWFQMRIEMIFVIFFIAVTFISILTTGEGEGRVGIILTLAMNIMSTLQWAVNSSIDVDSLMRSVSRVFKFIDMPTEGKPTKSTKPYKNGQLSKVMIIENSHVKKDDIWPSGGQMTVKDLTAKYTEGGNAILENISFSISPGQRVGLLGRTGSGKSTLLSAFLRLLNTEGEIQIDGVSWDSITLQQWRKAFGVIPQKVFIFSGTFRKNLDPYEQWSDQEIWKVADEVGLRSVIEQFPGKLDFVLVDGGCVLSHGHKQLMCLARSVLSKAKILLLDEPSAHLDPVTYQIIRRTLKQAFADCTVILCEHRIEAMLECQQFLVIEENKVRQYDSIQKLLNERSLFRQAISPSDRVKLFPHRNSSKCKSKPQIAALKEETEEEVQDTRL", "test": "Ussing measurements, G542X/F508del HBEs", "type": "cell-based", "details": "genotype G542X/F508del", "method": "As discussed above, Ussing measurements were used to measure CFTR activity. In this method, primary lung epithelial cells (hBEs) with a Cystic fibrosis causing class I mutation were differentiated for a minimum of 4 weeks in an air-liquid interface on SnapWell™ filter plates prior to the Ussing measurements. Cells were apically mucus-washed for 30 minutes prior to treatment with compounds. The basolateral media was removed and replaced with media containing the compound of interest diluted to its final concentration from DMSO or aqueous stocks. Treated cells were incubated at 37° C. and 5% CO2 for 24 hours. […] The short-circuit current was measured in voltage clamp-mode (Vhold=0 mV), and the entire assay was conducted at a temperature of 36° C.-36.5° C. Once the voltages stabilized, the chambers were clamped, and data were recorded by pulse readings every 5 seconds. Following baseline current stabilization, the following additions were applied and the changes in current and resistance of the cells were monitored: • 1. […]\nThe forskolin-sensitive current and inhibitable current (that potentiated current that was blocked by CFTRinh-172) were measured as the specific activity of the ΔF508-CFTR channel, and increase in response to compound in this activity over that observed in vehicle-treated samples were identified as the correction of ΔF508-CFTR function imparted by the compound tested. […]", "data": [{"smiles": "C[C@@H](O)c1nnc([C@H]2C[C@H](NC(=O)c3cc(-c4ccccc4)no3)C2)o1", "note": "[Example 6, N-(trans-3-(5-((R)-1-hydroxyethyl)-1,3,4-oxadiazol-2-yl)cyclobutyl)-3-phenylisoxazole-5-carboxamide]", "values": [{"measurement": "Combination with ivacaftor and lumacaftor, activity", "setting": "compound A 10uM + ivacaftor 1uM + lumacaftor 3 uM, relative activity of 100% = ivacaftor and lumacaftor", "value": "++++ (++++ indicates activity at 10uM of >150% of the indicated relative activity treatment)"}, {"measurement": "Stand Alone activity", "setting": "compound A 10uM, relative activity of 100% = ivacaftor (1uM) and lumacaftor (3 uM)", "value": "+ (+ indicates activity at 10uM of 15% to <50% of the indicated relative activity treatment)"}]}]}
